Assay results from publication PMC6367500, “18β-glycyrrhetyl-3-O-sulfate would be a causative agent of licorice-induced pseudoaldosteronism” (Scientific Reports, 2019).

Legend:
[1] = Concentrations of GL metabolites in plasma of a patient with pseudoaldosteronism (LC-MS/MS); type: in vivo, human; conditions: for plasma concentration, day 0 / concentration at 0 day: patient with licorice-induced pseudoaldosteronism, day 0; for plasma concentration, day 5 / concentration at 5 day: 5 days after stopping the Kampo formula; for concentration at 0 day: female; for concentration at 13 day: day 13
Description: The patient was a person who had taken a Kampo formula containing licorice for 3 years (1.5 g of licorice for 1 year and 2 months, and 3 g for 1 year and 10 months). On day 0, we found a low plasma potassium level (2.1 mEq/l) and a high creatinine kinase level (364 U/l). Since low plasma renin activity and a low aldosterone level were also found, the patient was diagnosed with pseudoaldosteronism due to licorice. The administration of the Kampo formula was stopped and potassium supplementation of up to 100 mEq/day was started. In the plasma collected on day 0, we detected compound 3 at 8.6 µM, GA at 1.3 µM, and 2 at 87 nM, while 1, GL and 3MGA were not detected. On day 5, the plasma potassium level was still 2.1 mEq/l and potassium supplementation was continued. However, the plasma concentrations of 3 and GA had decreased to 3.6 µM and 0.65 µM, respectively. 2, 1, GL, and 3MGA were not detected. On day 13, the plasma potassium level was increased to 2.8 mEq/l, and the concentrations of 3 and GA were 61 nM and 11 nM, respectively. On day 14, the plasma potassium level was 3.4 mEq/l, and the concentration of 3 was 57 nM; GA was not detected. On day 18, the plasma potassium level had recovered to a normal level (4.9 mEq/l), so potassium supplementation was stopped.
Female SD rats or EHBRs (9-week-old) were anesthetized by an intraperitoneal (i.p.) injection of urethane (1 g/kg) and their jugular veins were exposed. GA suspended in 0.5% CMC was then administered orally (200 mg/kg) to the unconscious rats, and blood samples were collected from the jugular vein; urine samples were collected using a metabolic cage at an appropriate time over a 12-h period. […] Feces were homogenized in phosphate-buffered saline (PBS; 0.15 M, pH 7.2), centrifuged (1.2 × 10^4 g, 10 min), and the supernatants were collected. After 1 week as a washout period, female SD rats were anesthetized by an i.p. injection of urethane (1 g/kg) and their biliary tract was cannulated. GA (0.2 mg/kg) was injected into the jugular vein, and the bile was collected every hour for 4 h. Aliquots (10 µl) of plasma, urine, homogenate of feces, or bile were mixed with 20 µl of subtilisin (0.91 U/ml) and incubated at 37 °C for 30 min, followed by the addition of 70 µl of astragaloside IV solution (1 µg/ml in ethanol containing 0.5% formic acid, used as internal standard), and kept at −20 °C for 30 min. […] The transitions (precursor to daughter) monitored and retention times were as follows: ESI(+) 743.4 to 567.5 m/z for compound 1 (5.5 min), ESI(−) 565.5 to 96.5 m/z for 2 (6.2 min), ESI(−) 549.5 to 96.5 m/z for 3 (8.1 min), ESI(+) 647.6 to 453.6 m/z for 3MGA (9.2 min), ESI(+) 471.3 to 91.0 m/z for GA (8.8 min), ESI(+) 823.5 to 453.6 m/z for GL (10.8 min), and ESI(+) 785.4 to 143.0 m/z for astragaloside IV (3.0 min). Linear regressions over the concentration range of 32 nM to 20 µM for each compound were examined using the peak-area ratio of the compounds to their internal standards and the least-squares method (r^2 > 0.98).
The patient was a person. They provided written informed consent to the use of their blood and urine samples for this study, which was approved by the Independent Ethics Committee of Kameda General Hospital, in accordance with the Declaration of Helsinki. Their anamnesis was follows: hypertension, systemic lupus erythematosus, and antiphospholipid antibody syndrome (for 15 years), necrotic pulmonary aspergillosis (6 years ago), cerebral infarction (14 and 4 years ago, two times), and stomach cancer (3 years ago). After the operation for stomach cancer, the patient had been treated with Kracie Juzentaihoto Extract Granules for Ethical Use (Kracie Pharmaceuticals., Tokyo, Japan). […]

anti-3MGA-mAb = assay: Dot-blot analysis using anti-3MGA-mAb; type: binding; conditions: 1 µg spotted on PES membrane, imaging analysis
Protocol: We confirmed the cross-reactivity of anti-3MGA-mAb against these GL metabolites. GL, GA, 3MGA, and compounds 1, 2, and 3 (1 µg each) were spotted on a polyethersulfone (PES) membrane, fixed onto the membrane, and colored using an anti-3MGA-mAb (Fig. 5A). […] Thus, the anti-3MGA-mAb cross-reacted to some extent with other metabolites of GL.
Figure 5 Dot-blot analysis and ELISA detection range of GL metabolites using anti-3MGA-monoclonal antibody (mAb). GL metabolites (1 µg each) were spotted on a PES membrane, and colored using an anti-3MGA-mAb (A). Competitive ELISA using anti-3MGA-mAb for GL metabolites was performed. Data are represented from a single analysis (n = 1) (B). […] Data are represented as mean ± S.D. (n = 3). Two-way ANOVA indicated a significant difference between GA and 3 (F1,36 = 4441, P < 0.001), concentrations (F8,36 = 315, P < 0.001), and their interactions (F8,36 = 281, P < 0.001). The calibrated line for the absorbance-concentration profile of 3 was calculated by the linear least-squares method, and the regression formula is shown in graph (C).
Anti-3MGA-mAb and 3MGA-human serum albumin (HSA)-conjugate were developed by the same protocols established in our previous studies[22],[23]. GL, GA, 3MGA, 1, 2, and 3 (1 µg each) were spotted on a Mustang^TM E positively charged PES membrane (Pall Co., East Hills, NY, USA). The membrane was then immersed into 0.1 M MES buffer (pH 4.7) containing 2% EDC and 1% NHS, and kept at room temperature for 1 h to activate the carboxyl group. After washing with distilled water, PBS containing 1% bovine serum albumin (BSA) was added to the membrane, which was shaken at room temperature for 2 h for fixation. Next, the membrane was blocked with PBS containing 5% skim milk (Morinaga-milk, Tokyo, Japan) and 0.1% Tween 20 at 4 °C overnight to reduce nonspecific adsorption. After washing twice with PBS containing 0.1% Tween 20 (T-PBS) for 5 min, the membrane was incubated with anti-3MGA-mAb and kept at room temperature for 3 h with constant agitation. The membrane was then washed twice with T-PBS for 5 min and treated with 1:500 diluted horseradish peroxidase (HRP)-labeled goat anti-mouse IgG (whole molecule; Sigma, St. Louis, MO, USA) antibody in T-PBS for 1 h with gentle shaking. Finally, the membrane was washed twice with T-PBS and once with PBS, and exposed to 1 mg/ml of freshly prepared 4-chloro-1-naphthol-0.03% H2O2 in PBS for 15 min at room temperature. The reaction was stopped by washing with distilled water, and the immunostained PES membrane was allowed to dry and then photographed. The positively stained areas were measured using Image J 1.46r (http://imageJ.nih.gov/ij).

CC1(C)[C@@H](O[C@@H]2O[C@H](C(=O)O)[C@@H](O)[C@H](O)[C@H]2O)CC[C@]2(C)[C@H]3C(=O)C=C4[C@@H]5C[C@@](C)(C(=O)O)CC[C@]5(C)CC[C@@]4(C)[C@]3(C)CC[C@@H]12 [3MGA, 3-monoglucuronyl glycyrrhetinic acid, reference compound]
plasma concentration (below detection limit) ([1]; patient plasma sample, LC-MS/MS detection limit): less than 3.2 nM
plasma concentration, day 0 [1]: not detected
plasma concentration, day 5 ([1]; patient): not detected
area of positive staining in dot-blot (anti-3MGA-mAb): 3395 pixels

CC1(C)[C@@H](O)CC[C@]2(C)[C@H]3C(=O)C=C4[C@@H]5C[C@@](C)(C(=O)O)CC[C@]5(C)CC[C@@]4(C)[C@]3(C)CC[C@@H]12 [GA, glycyrrhetinic acid, reference compound]
concentration at 0 day ([1]; human, plasma, oral): 1300 nM
concentration at 5 day ([1]; human, plasma, oral, patient): 650 nM
concentration at 13 day ([1]; human, plasma, oral, patient): 11 nM
plasma concentration, day 14 ([1]; patient, day 14): not detected
area of positive staining in dot-blot (anti-3MGA-mAb): 97 pixels

CC1(C)[C@@H](OS(=O)(=O)O)CC[C@]2(C)[C@H]3C(=O)C=C4[C@@H]5C[C@@](C)(C(=O)O[C@@H]6O[C@H](C(=O)O)[C@@H](O)[C@H](O)[C@H]6O)C[C@H](O)[C@]5(C)CC[C@@]4(C)[C@]3(C)CC[C@@H]12 [compound 1, 22α-hydroxy-18β-glycyrrhetyl-3-O-sulfate-30-glucuronide]
plasma concentration, day 0 [1]: not detected
plasma concentration, day 5 ([1]; patient): not detected
area of positive staining in dot-blot (anti-3MGA-mAb): 606 pixels

CC1(C)[C@@H](OS(=O)(=O)O)CC[C@]2(C)[C@H]3C(=O)C=C4[C@@H]5C[C@@](C)(C(=O)O)C[C@H](O)[C@]5(C)CC[C@@]4(C)[C@]3(C)CC[C@@H]12 [compound 2, 22α-hydroxy-18β-glycyrrhetyl-3-O-sulfate]
concentration at 0 day ([1]; human, plasma, oral): 87 nM
plasma concentration, day 5 ([1]; patient): not detected
area of positive staining in dot-blot (anti-3MGA-mAb): 79 pixels

CC1(C)[C@@H](OS(=O)(=O)O)CC[C@]2(C)[C@H]3C(=O)C=C4[C@@H]5C[C@@](C)(C(=O)O)CC[C@]5(C)CC[C@@]4(C)[C@]3(C)CC[C@@H]12 [compound 3, 18β-glycyrrhetyl-3-O-sulfate]
concentration at 0 day ([1]; human, plasma, oral): 8600 nM
concentration at 5 day ([1]; human, plasma, oral, patient): 3600 nM
concentration at 13 day ([1]; human, plasma, oral, patient): 61 nM
concentration at 14 day ([1]; human, plasma, oral, patient, day 14): 57 nM
plasma concentration, day 18 ([1]; patient, day 18): below the detectable limit
area of positive staining in dot-blot (anti-3MGA-mAb): 146 pixels
